Assay results taken from the NIST ThermoML archive (doi:10.1016/j.jct.2019.04.010).
Numbers after ± are expanded uncertainties.

Test: xn = mol fraction of the nth substance listed
Conditions: 100 kPa, Liquid; for viscosity: Concentric cylinders viscometry; for mass density: Vibrating tube method

CCCCn1cc[n+](C)c1.O=[N+]([O-])[O-] [1-butyl-3-methylimidazolium nitrate] + CC(C)O
viscosity (293.15 K, x1 = 0.0815): 4.18 ± 0.84 mPa·s | viscosity (293.15 K, x1 = 0.1596): 6.88 ± 1.4 mPa·s | viscosity (293.15 K, x1 = 0.2405): 10.99 ± 2.2 mPa·s | viscosity (293.15 K, x1 = 0.3495): 18 ± 3.6 mPa·s | viscosity (293.15 K, x1 = 0.4405): 26 ± 5.2 mPa·s | viscosity (293.15 K, x1 = 0.5607): 39.8 ± 8 mPa·s | viscosity (293.15 K, x1 = 0.6506): 53.28 ± 11 mPa·s | viscosity (293.15 K, x1 = 0.7413): 69.94 ± 14 mPa·s | viscosity (293.15 K, x1 = 0.8515): 105.6 ± 21 mPa·s | viscosity (293.15 K, x1 = 0.9396): 157.7 ± 32 mPa·s | viscosity (293.15 K, x1 = 1): 223.54 ± 45 mPa·s | mass density (293.15 K, x1 = 0.0815): 853.9 ± 1.8 kg/m3 | mass density (293.15 K, x1 = 0.1596): 906.3 ± 1.6 kg/m3 | mass density (293.15 K, x1 = 0.2405): 951.1 ± 1.4 kg/m3 | mass density (293.15 K, x1 = 0.3495): 1000.3 ± 1.3 kg/m3 | mass density (293.15 K, x1 = 0.4405): 1034 ± 1.2 kg/m3 | mass density (293.15 K, x1 = 0.5607): 1070.7 ± 1.2 kg/m3 | mass density (293.15 K, x1 = 0.6506): 1093.8 ± 1.2 kg/m3 | mass density (293.15 K, x1 = 0.7413): 1114.1 ± 1.2 kg/m3 | mass density (293.15 K, x1 = 0.8515): 1135 ± 1.3 kg/m3 | mass density (293.15 K, x1 = 0.9396): 1149.7 ± 1.4 kg/m3 | mass density (293.15 K, x1 = 1): 1158.3 ± 1.5 kg/m3 | viscosity (298.15 K, x1 = 0.0815): 3.66 ± 0.73 mPa·s | viscosity (298.15 K, x1 = 0.1596): 5.95 ± 1.2 mPa·s | viscosity (298.15 K, x1 = 0.2405): 9.26 ± 1.9 mPa·s | viscosity (298.15 K, x1 = 0.3495): 15.42 ± 3.1 mPa·s | viscosity (298.15 K, x1 = 0.4405): 22 ± 4.4 mPa·s | viscosity (298.15 K, x1 = 0.5607): 33.04 ± 6.6 mPa·s | viscosity (298.15 K, x1 = 0.6506): 42.9 ± 8.6 mPa·s | viscosity (298.15 K, x1 = 0.7413): 55.5 ± 11 mPa·s | viscosity (298.15 K, x1 = 0.8515): 81.6 ± 16 mPa·s | viscosity (298.15 K, x1 = 0.9396): 122.4 ± 25 mPa·s | viscosity (298.15 K, x1 = 1): 168.97 ± 34 mPa·s | mass density (298.15 K, x1 = 0.0815): 849.9 ± 1.8 kg/m3 | mass density (298.15 K, x1 = 0.1596): 902.5 ± 1.6 kg/m3 | mass density (298.15 K, x1 = 0.2405): 947.4 ± 1.4 kg/m3 | mass density (298.15 K, x1 = 0.3495): 996.7 ± 1.3 kg/m3 | mass density (298.15 K, x1 = 0.4405): 1030.5 ± 1.2 kg/m3 | mass density (298.15 K, x1 = 0.5607): 1067.4 ± 1.2 kg/m3 | mass density (298.15 K, x1 = 0.6506): 1090.6 ± 1.2 kg/m3 | mass density (298.15 K, x1 = 0.7413): 1110.9 ± 1.2 kg/m3 | mass density (298.15 K, x1 = 0.8515): 1131.9 ± 1.3 kg/m3 | mass density (298.15 K, x1 = 0.9396): 1146.6 ± 1.4 kg/m3 | mass density (298.15 K, x1 = 1): 1155.2 ± 1.5 kg/m3 | viscosity (303.15 K, x1 = 0.0815): 3.29 ± 0.66 mPa·s | viscosity (303.15 K, x1 = 0.1596): 5.22 ± 1.1 mPa·s | viscosity (303.15 K, x1 = 0.2405): 8 ± 1.6 mPa·s | viscosity (303.15 K, x1 = 0.3495): 12.83 ± 2.6 mPa·s | viscosity (303.15 K, x1 = 0.4405): 17.76 ± 3.6 mPa·s | viscosity (303.15 K, x1 = 0.5607): 26.4 ± 5.3 mPa·s | viscosity (303.15 K, x1 = 0.6506): 34.49 ± 6.9 mPa·s | viscosity (303.15 K, x1 = 0.7413): 45.29 ± 9.1 mPa·s | viscosity (303.15 K, x1 = 0.8515): 63.3 ± 13 mPa·s | viscosity (303.15 K, x1 = 0.9396): 90.3 ± 18 mPa·s | viscosity (303.15 K, x1 = 1): 125.36 ± 25 mPa·s | mass density (303.15 K, x1 = 0.0815): 846 ± 1.8 kg/m3 | mass density (303.15 K, x1 = 0.1596): 898.7 ± 1.6 kg/m3 | mass density (303.15 K, x1 = 0.2405): 943.8 ± 1.4 kg/m3 | mass density (303.15 K, x1 = 0.3495): 993.2 ± 1.3 kg/m3 | mass density (303.15 K, x1 = 0.4405): 1027.2 ± 1.2 kg/m3 | mass density (303.15 K, x1 = 0.5607): 1064.2 ± 1.2 kg/m3 | mass density (303.15 K, x1 = 0.6506): 1087.4 ± 1.2 kg/m3 | mass density (303.15 K, x1 = 0.7413): 1107.9 ± 1.2 kg/m3 | mass density (303.15 K, x1 = 0.8515): 1129 ± 1.3 kg/m3 | mass density (303.15 K, x1 = 0.9396): 1143.6 ± 1.4 kg/m3 | mass density (303.15 K, x1 = 1): 1152.3 ± 1.5 kg/m3 | viscosity (308.15 K, x1 = 0.0815): 2.93 ± 0.59 mPa·s | viscosity (308.15 K, x1 = 0.1596): 4.55 ± 0.91 mPa·s | viscosity (308.15 K, x1 = 0.2405): 6.55 ± 1.3 mPa·s | viscosity (308.15 K, x1 = 0.3495): 10.13 ± 2 mPa·s | viscosity (308.15 K, x1 = 0.4405): 14.06 ± 2.8 mPa·s | viscosity (308.15 K, x1 = 0.5607): 20.79 ± 4.2 mPa·s | viscosity (308.15 K, x1 = 0.6506): 27.05 ± 5.4 mPa·s | viscosity (308.15 K, x1 = 0.7413): 36.2 ± 7.2 mPa·s | viscosity (308.15 K, x1 = 0.8515): 50.5 ± 10 mPa·s | viscosity (308.15 K, x1 = 0.9396): 72.4 ± 15 mPa·s | viscosity (308.15 K, x1 = 1): 96.74 ± 19 mPa·s
